# Experimental data reported in US11091478B2 (Fochon Pharmaceuticals, Ltd., priority 2017, dated 2021).
# Columns and labels:
# [1] = tested on: DOHH2 cells; assay: Cell proliferation assay (MTS), DOHH2 cells, 120 h; type: cell-based; details: Homo sapiens, DOHH-2, 120 h
# How it was run: (§1)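 Proliferation was scored by MTS (2 h, then SDS stop, A490 with 650 nm reference) and IC50 derived. Compound ran at nine final concentrations from 1.5 to 10000 nM. DOHH2 were incubated 120 h and RS4;11 72 h, both plated at 5000 cells/well in RPMI-1640 plus 10% FBS.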
# [2] = tested on: RS4;11 cells; assay: Cell proliferation assay (MTS), RS4;11 cells, 72 h; type: cell-based; details: Homo sapiens, RS4-11, 72 h
# How it was run: as §1
IC50 [2] [nM],SMILES,IC50 [1] [nM]
36,"CC1(C)CCC(CN2CCN(c3ccc(C(=O)NS(=O)(=O)c4cc5c(c([N+](=O)[O-])c4)N[C@@H](CN4CCC(C)(O)CC4)CO5)c(Oc4cnc5[nH]ccc5c4)c3)CC2)=C(c2ccc(Cl)cc2)C1 [Example 2-19, (S)-2-((1H-pyrrolo[2,3-b]pyridin-5-yl)oxy)-4-(4-((4′-chloro-5,5-dimethyl-3,4,5,6-tetra-hydro-[1,1′-biphenyl]-2-yl)methyl)piperazin-1-yl)-N-((3-((4-hydroxy-4-methylpiperidin-1-yl)methyl)-5-nitro-3,4-dihydro-2H-ben-zo[b][1,4]oxazin-7-yl)sulfonyl)benzamide]",70
29,"CN(C)C[C@H]1COc2cc(S(=O)(=O)NC(=O)c3ccc(N4CCN(CC5=C(c6ccc(Cl)cc6)CC(C)(C)CC5)CC4)cc3Oc3cnc4[nH]ccc4c3)cc([N+](=O)[O-])c2N1 [Example 2-20, (S)-2-((1H-pyrrolo[2,3-b]pyridin-5-yl)oxy)-4-(4-((4′-chloro-5,5-dimethyl-3,4,5,6-tetra-hydro-[1,1′-biphenyl]-2-yl)methyl)piperazin-1-yl)-N-((3-((dimethylamino)methyl)-5-nitro-3,4-dihydro-2H-benzo[b][1,4]oxazin-7-yl)sulfonyl)benzamide]",59
1,"CC1(C)CCC(CN2CCN(c3ccc(C(=O)NS(=O)(=O)c4cc5c(c([N+](=O)[O-])c4)N[C@H](CN4CC(C)(O)C4)CO5)c(Oc4cnc5[nH]ccc5c4)c3)CC2)=C(c2ccc(Cl)cc2)C1 [Example 2-21, (R)-2-((1H-pyrrolo[2,3-b]pyridin-5-yl)oxy)-4-(4-((4′-chloro-5,5-dimethyl-3,4,5,6-tetra-hydro-[1,1′-biphenyl]-2-yl)methyl)piperazin-1-yl)-N-((3-((3-hydroxy-3-methylazetidin-1-yl)methyl)-5-nitro-3,4-dihydro-2H-ben-zo[b][1,4]oxazin-7-yl)sulfonyl)benzamide]",8
1,"C[C@@H]1CN(C[C@@H]2COc3cc(S(=O)(=O)NC(=O)c4ccc(N5CCN(CC6=C(c7ccc(Cl)cc7)CC(C)(C)CC6)CC5)cc4Oc4cnc5[nH]ccc5c4)cc([N+](=O)[O-])c3N2)CCN1C1COC1 [Example 2-22, 2-((1H-pyrrolo[2,3-b]pyridin-5-yl)oxy)-4-(4-((4′-chloro-5,5-dimethyl-3,4,5,6-tetra-hydro-[1,1′-biphenyl]-2-yl)methyl)piperazin-1-yl)-N-(((R)-3-(((R)-3-methyl-4-(oxetan-3-yl)piperazin-1-yl)methyl)-5-nitro-3,4-dihydro-2H-benzo[b][1,4]oxazin-7-yl)sulfonyl) benzamide]",2
7,"C[C@@H]1CN(C[C@@H]2COc3cc(S(=O)(=O)NC(=O)c4ccc(N5CCN(CC6=C(c7ccc(Cl)cc7)CC(C)(C)CC6)CC5)cc4Oc4cnc5[nH]ccc5c4)cc([N+](=O)[O-])c3N2)CCO1 [Example 2-23, 2-((1H-pyrrolo[2,3-b]pyridin-5-yl)oxy)-4-(4-((4′-chloro-5,5-dimethyl-3,4,5,6-tetra-hydro-[1,1′-biphenyl]-2-yl)methyl)piperazin-1-yl)-N-(((R)-3-(((R)-2-methylmorpholino)methyl)-5-nitro-3,4-dihydro-2H-benzo[b][1,4]oxazin-7-yl)sulfonyl)benzamide]",33
72,"CC1(C)CCC(CN2CCN(c3ccc(C(=O)NS(=O)(=O)c4cc5c(c([N+](=O)[O-])c4)N[C@@H](CN4CC(O)C4)CO5)c(Oc4cnc5[nH]ccc5c4)c3)CC2)=C(c2ccc(Cl)cc2)C1 [Example 2-24, (S)-2-((1H-pyrrolo[2,3-b]pyridin-5-yl)oxy)-4-(4-((4′-chloro-5,5-dimethyl-3,4,5,6-tetra-hydro-[1,1′-biphenyl]-2-yl)methyl)piperazin-1-yl)-N-((3-((3-hydroxyazetidin-1-yl)meth-yl)-5-nitro-3,4-dihydro-2H-benzo[b][1,4]oxazin-7-yl)sulfonyl)benzamide]",115
8,"CC1(C)CCC(CN2CCN(c3ccc(C(=O)NS(=O)(=O)c4cc5c(c([N+](=O)[O-])c4)N[C@@H](CN4CC(C)(O)C4)CO5)c(Oc4cnc5[nH]ccc5c4)c3)CC2)=C(c2ccc(Cl)cc2)C1 [Example 2-25, (S)-2-((1H-pyrrolo[2,3-b]pyridin-5-yl)oxy)-4-(4-((4′-chloro-5,5-dimethyl-3,4,5,6-tetra-hydro-[1,1′-biphenyl]-2-yl)methyl)piperazin-1-yl)-N-((3-((3-hydroxy-3-methylazetidin-1-yl)methyl)-5-nitro-3,4-dihydro-2H-ben-zo[b][1,4]oxazin-7-yl)sulfonyl)benzamide]",10
6,"C[C@@H]1CN(C[C@H]2COc3cc(S(=O)(=O)NC(=O)c4ccc(N5CCN(CC6=C(c7ccc(Cl)cc7)CC(C)(C)CC6)CC5)cc4Oc4cnc5[nH]ccc5c4)cc([N+](=O)[O-])c3N2)CCN1C [Example 2-26, 2-((1H-pyrrolo[2,3-b]pyridin-5-yl)oxy)-4-(4-((4′-chloro-5,5-dimethyl-3,4,5,6-tetrahydro-[1,1′-biphenyl]-2-yl)methyl)piperazin-1-yl)-N-(((S)-3-(((R)-3,4-dimethylpiperazin-1-yl)methyl)-5-nitro-3,4-dihydro-2H-benzo [b][1,4]oxazin-7-yl)sulfonyl)benzamide]",19
1,"C[C@H]1CN(C[C@H]2COc3cc(S(=O)(=O)NC(=O)c4ccc(N5CCN(CC6=C(c7ccc(Cl)cc7)CC(C)(C)CC6)CC5)cc4Oc4cnc5[nH]ccc5c4)cc([N+](=O)[O-])c3N2)CCN1C [Example 2-27, 2-((1H-pyrrolo[2,3-b]pyridin-5-yl)oxy)-4-(4-((4′-chloro-5,5-dimethyl-3,4,5,6-tetra-hydro-[1,1′-biphenyl]-2-yl)methyl)piperazin-1-yl)-N-(((S)-3-(((S)-3,4-dimethylpiperazin-1-yl)methyl)-5-nitro-3,4-dihydro-2H-benzo [b][1,4]oxazin-7-yl)sulfonyl)benzamide]",12
1,"CC1(C)CCC(CN2CCN(c3ccc(C(=O)NS(=O)(=O)c4cc5c(c([N+](=O)[O-])c4)N[C@@H](CN4CCN(C6COC6)CC4)CO5)c(Oc4cnc5[nH]ccc5c4)c3)CC2)=C(c2ccc(Cl)cc2)C1 [Example 2-28, (S)-2-((1H-pyrrolo[2,3-b]pyridin-5-yl)oxy)-4-(4-((4′-chloro-5,5-dimethyl-3,4,5,6-tetra-hydro-[1,1′-biphenyl]-2-yl)methyl)piperazin-1-yl)-N-((5-nitro-3-((4-(oxetan-3-yl)piper-azin-1-yl)methyl)-3,4-dihydro-2H-benzo[b] [1,4]oxazin-7-yl)sulfonyl)benzamide]",1
1,"C[C@@H]1CN(C[C@H]2COc3cc(S(=O)(=O)NC(=O)c4ccc(N5CCN(CC6=C(c7ccc(Cl)cc7)CC(C)(C)CC6)CC5)cc4Oc4cnc5[nH]ccc5c4)cc([N+](=O)[O-])c3N2)CCN1C1COC1 [Example 2-29, 2-((1H-pyrrolo[2,3-b]pyridin-5-yl)oxy)-4-(4-((4′-chloro-5,5-dimethyl-3,4,5,6-tetrahydro-[1,1′-biphenyl]-2-yl)methyl)piperazin-1-yl)-N-(((S)-3-(((R)-3-methyl-4-(oxetan-3-yl)piperazin-1-yl)methyl)-5-nitro-3,4-dihydro-2H-benzo[b][1,4]oxazin-7-yl)sulfonyl) benzamide]",7
1,C[C@H]1CN(C[C@H]2COc3cc(S(=O)(=O)NC(=O)c4ccc(N5CCN(CC6=C(c7ccc(Cl)cc7)CC(C)(C)CC6)CC5)cc4Oc4cnc5[nH]ccc5c4)cc([N+](=O)[O-])c3N2)CCN1C1COC1 [Example 2-30],8
7,"C[C@H]1CN(C[C@H]2COc3cc(S(=O)(=O)NC(=O)c4ccc(N5CCN(CC6=C(c7ccc(Cl)cc7)CC(C)(C)CC6)CC5)cc4Oc4cnc5[nH]ccc5c4)cc([N+](=O)[O-])c3N2)CCO1 [Example 2-31, 2-((1H-pyrrolo[2,3-b]pyridin-5-yl)oxy)-4-(4-((4′-chloro-5,5-dimethyl-3,4,5,6-tetrahydro-[1,1′-biphenyl]-2-yl)methyl)piperazin-1-yl)-N-(((S)-3-(((S)-2-methylmorpholino)meth-yl)-5-nitro-3,4-dihydro-2H-benzo[b][1,4]oxazin-7-yl)sulfonyl)benzamide]",18
18,"C[C@@H]1CN(C[C@H]2COc3cc(S(=O)(=O)NC(=O)c4ccc(N5CCN(CC6=C(c7ccc(Cl)cc7)CC(C)(C)CC6)CC5)cc4Oc4cnc5[nH]ccc5c4)cc([N+](=O)[O-])c3N2)CCO1 [Example 2-32, 2-((1H-pyrrolo[2,3-b]pyridin-5-yl)oxy)-4-(4-((4′-chloro-5,5-dimethyl-3,4,5,6-tetrahydro-[1,1′-biphenyl]-2-yl)methyl)piperazin-1-yl)-N-(((S)-3-(((R)-2-methylmorpholino)meth-yl)-5-nitro-3,4-dihydro-2H-benzo[b][1,4]oxazin-7-yl)sulfonyl)benzamide]",34
11,"CC1(C)CCC(CN2CCN(c3ccc(C(=O)NS(=O)(=O)c4cc5c(c([N+](=O)[O-])c4)N[C@H](CCN=S(C)(C)=O)CO5)c(Oc4cnc5[nH]ccc5c4)c3)CC2)=C(c2ccc(Cl)cc2)C1 [Example 2-33, (R)-2-((1H-pyrrolo[2,3-b]pyridin-5-yl)oxy)-4-(4-((4′-chloro-5,5-dimethyl-3,4,5,6-tetra-hydro-[1,1′-biphenyl]-2-yl)methyl)piperazin-1-yl)-N-((3-(2-((dimethyl(oxo)-l6-sulfanyl-idene)amino)ethyl)-5-nitro-3,4-dihydro-2H-benzo[b][1,4]oxazin-7-yl)sulfonyl)benza-mide]",25
